# US20160346255A1, “METHODS, AGENTS AND COMPOSITIONS FOR TREATMENT OF INFLAMMATORY CONDITIONS” (Betanien Hospital, priority 2014, published 2016)
# Non-standard residues stand in square brackets, D forms with d. Residues, ends and D or L forms follow the SMILES beside them. *: point of attachment. dPhe(4-NHCONH2) = NC(=O)Nc1ccc(C[C@@H](N)C(=O)O)cc1; Dihydroorotyl(S) = O=C1C[C@@H](C(=O)*)NC(=O)N1; dPhe(4-Cl) = N[C@H](Cc1ccc(Cl)cc1)C(=O)O; Phe(4-NH2) = Nc1ccc(C[C@H](N)C(=O)O)cc1; d2Nal = N[C@H](Cc1ccc2ccccc2c1)C(=O)O; Lys(iPr) = CC(C)NCCCC[C@H](N)C(=O)O; d3Pal = N[C@H](Cc1cccnc1)C(=O)O
# Legend:
# Format in all cases: in vivo, human
# [1] = system: Patients with Rheumatoid Arthritis; assay: Rheumatoid arthritis patients treated with degarelix: clinical variables
# Source text: Examples of Treating Patients with Rheumatoid Arthritis with a GnRH Antagonist [table] […] Examples of Patients with Continued RA Improvement Over Several Weeks Despite Stably Low Levels of LH
# [2] = system: Patient with Systemic Sclerosis; assay: Systemic sclerosis patient treated with degarelix; conditions: for HAQ DI: baseline 1.88; for Digital tip ulcers/pitting scars: baseline 5; for Modified Rodnan Skin Score: baseline 42; for VAS Fatigue / VAS Fingertip pain/pitting scars/ulcers / VAS Gastrointestinal Symptoms / VAS Global / VAS Lung/dyspnea / VAS Pain / VAS Raynauds/vascular: baseline 100; for Sleep: baseline 2 hrs/night
# Source text: • person, diagnosed with systemic sclerosis • Fulfilled the 2013 EULAR/ACR classification criteria for systemic sclerosis (1). • Diagnosis based upon Raynauds phenomenon, positive ANA, high titre anti-Scl 70 antibodies, marked skin changes typical of scleroderma, and esophageal dysmotility. • Previously tried cyclophosphamide and mycophenolate mofetil. • Progressive disease and worsening scleroderma skin features, despite therapy. • Rapid progressive cardiac disease, verified by biopsy. • Experimental treatment • 5 Dec. 2014 received first dose of degarelix, 240 mg s.c. • 9 Jan. 2015 received second dose of degarelix, 80 mg s.c.
# • Digital ulcers and pitting scars are a characteristic feature of systemic sclerosis, contributing to disability and pain. They are important factors in patients' evaluations of quality of life (2). Their precise objective evaluation can be included in randomized controlled trials (3). Their pathogenesis is unclear. Histologically, there is a plug-like hyperkeratosis with parakeratosis, homogenized collagen fibers and perivascular mononuclear cell infiltration (4). […] Efficacy variables in a systemic sclerosis patient treated with a GnRH antagonist at baseline, 5 weeks and 6 weeks: […]
# [3] = system: Patient with Rheumatoid Arthritis; assay: Rheumatoid arthritis patient treated with degarelix 40 mg weekly; conditions: 240 mg loading
# Procedure: • person with seropositive rheumatoid arthritis with disease duration of 22 years. • Fulfilled ACR 2010 classification criteria for rheumatoid arthritis.
# • Had tried most therapies available (for example: Humira, Remicade, Enbrel, Actemra, several disease modifying anti-rheumatic drugs), previously without effect or intolerable side effects. • Offered experimental GnRH antagonist therapy, degarelix 40 mg every week with 240 mg loading dose at baseline.
# [4] = Peripheral GnRH levels by ELISA in patients on degarelix; conditions: 3 months
# Procedure: (§1) We analysed peripheral GnRH levels in patients with various autoimmune diseases using ELISA. […] Due to the nature of ELISA assays, the concentration in pg/mL should not necessarily be regarded as absolute, and may be interpreted as relative. RA Patient A Baseline GnRH 394 pg/mL, after 3 months of degarelix with loading dose 240 mg, and maintenance doses 80 mg every 2 weeks, GnRH 359 pg/mL. […] During that month/6 weeks […] general function had improved, for example MSIS-29 had reduced from 121 to 110. […] During that period their PASI score reduced by more than 20%. Healthy control 1 baseline GnRH 162 pg/mL, healthy control 2 baseline GnRH 120 pg/mL, healthy control 3 baseline GnRH 153 pg/mL.
# peripheral GnRH = assay: as above
# Procedure: as §1
# [5] = Patient 2, 15 weeks, baseline 17
# [6] = Patient 2, 15 weeks, baseline 90
structure (smiles),measurement,setting,value
CC(=O)N[C@H](Cc1ccc2ccccc2c1)C(=O)N[C@H](Cc1ccc(Cl)cc1)C(=O)N[C@H](Cc1cccnc1)C(=O)N[C@@H](CO)C(=O)N[C@@H](Cc1ccc(NC(=O)[C@@H]2CC(=O)NC(=O)N2)cc1)C(=O)N[C@H](Cc1ccc(NC(N)=O)cc1)C(=O)N[C@@H](CC(C)C)C(=O)N[C@@H](CCCCNC(C)C)C(=O)N1CCC[C@H]1C(=O)N[C@H](C)C(N)=O [degarelix] (Ac-[d2Nal][dPhe(4-Cl)][d3Pal]S[Phe(4-NH2)](Dihydroorotyl(S))[dPhe(4-NHCONH2)]L[Lys(iPr)]P[dA]-NH2),"Function score (Good <1), final","[1]; Patient 1, 28 weeks, baseline 1.25","1.25, 0"
same,"Morning stiffness, final","[1]; Patient 1, 28 weeks, baseline 2.5","2.5, 0 hrs"
same,"Swollen joint count assessed with ultrasound, final","[1]; Patient 1, 28 weeks, baseline 6","6, 0"
same,"Tender joint, final","[1]; Patient 1, 28 weeks, baseline 9","9, 0"
same,"Patient own assessment (0-100), final","[1]; Patient 1, 28 weeks, baseline 81","81, 0"
same,"Physician assessment (0-100), final","[1]; Patient 1, 28 weeks, baseline 85","85, 7"
same,ACR % Response,"[1]; Patient 1, treatment duration 28 weeks",90%
same,"Function score (Good <1), final","[1]; Patient 2, 15 weeks, baseline 2.0","2.0, 0.25"
same,"Morning stiffness, final","[1]; Patient 2, 15 weeks, baseline 9","9, 1 hrs"
same,"Swollen joint count assessed with ultrasound, final",[1]; [5],"17, 2"
same,"Tender joint, final",[1]; [5],"17, 3"
same,"Patient own assessment (0-100), final",[1]; [6],"90, 35"
same,"Physician assessment (0-100), final",[1]; [6],"90, 40"
same,ACR % Response,"[1]; Patient 2, treatment duration 15 weeks",60%
same,ACR % Response,"[1]; Patient 3, 4 wks",30%
same,ACR % Response,"[1]; Patient 3, 8 wks",40%
same,"Function score (Good <1), final","[1]; Patient 3, 12 weeks, baseline 1.75","1.75, 0.63"
same,"Morning stiffness, final","[1]; Patient 3, 12 weeks, baseline 7","7, ½"
same,"Swollen joint count assessed with ultrasound, final","[1]; Patient 3, 12 weeks, baseline 23","23, 4"
same,"Tender joint, final","[1]; Patient 3, 12 weeks, baseline 26","26, 11"
same,"Patient own assessment (0-100), final","[1]; Patient 3, 12 weeks, baseline 50","50, 30"
same,"Physician assessment (0-100), final","[1]; Patient 3, 12 weeks, baseline 90","90, 30"
same,ACR % Response,"[1]; Patient 3, 12 wks",50%
same,ACR % Response,"[1]; Patient 3, treatment duration 12 weeks",50%
same,ACR % Response,"[1]; Patient 4, 3½ wks",20%
same,"Function score (Good <1), final","[1]; Patient 4, 9 weeks, baseline 0.88","0.88, 0.38"
same,"Morning stiffness, final","[1]; Patient 4, 9 weeks, baseline 7","7, 3 hrs"
same,"Swollen joint count assessed with ultrasound, final","[1]; Patient 4, 9 weeks, baseline 24","24, 3"
same,"Tender joint, final","[1]; Patient 4, 9 weeks, baseline 28","28, 11"
same,"Physician assessment (0-100), final","[1]; Patient 4, 9 weeks, baseline 80","80, 40"
same,"Patient own assessment (0-100), final","[1]; Patient 4, 9 weeks, baseline 90","90, 50"
same,ACR % Response,"[1]; Patient 4, 9 wks",50%
same,ACR % Response,"[1]; Patient 4, treatment duration 9 weeks",50%
same,"Function score (Good <1), final","[1]; Patient 5, 7 weeks, baseline 1.29","1.29, 0.88"
same,"Morning stiffness, final","[1]; Patient 5, 7 weeks, baseline 2.5","2.5, ¾"
same,"Swollen joint count assessed with ultrasound, final","[1]; Patient 5, 7 weeks, baseline 10","10, 2"
same,"Tender joint, final","[1]; Patient 5, 7 weeks, baseline 12","12, 0"
same,"Physician assessment (0-100), final","[1]; Patient 5, 7 weeks, baseline 70","70, 20"
same,"Patient own assessment (0-100), final","[1]; Patient 5, 7 weeks, baseline 88, footnote: muscular pain in arms","88, 88^3"
same,Power Doppler (inflammatory activity) on ultrasound of shoulder and MCP 4 joints,"[1]; Patient 5, after treatment, power Doppler present before (FIG. 2)",no power Doppler
same,ACR % Response,"[1]; Patient 5, treatment duration 7 weeks",30%
same,"Function score (Good <1), final","[1]; Patient 6, 36 weeks, baseline 1.5","1.5, 0.625"
same,"Morning stiffness, final","[1]; Patient 6, 36 weeks, baseline 2","2, 0 hrs"
same,"Swollen joint count assessed with ultrasound, final","[1]; Patient 6, 36 weeks, baseline 16","16, 0"
same,"Tender joint, final","[1]; Patient 6, 36 weeks, baseline 24","24, 0"
same,"Patient own assessment (0-100), final","[1]; Patient 6, 36 weeks, baseline 60","60, 7"
same,"Physician assessment (0-100), final","[1]; Patient 6, 36 weeks, baseline 90","90, 7"
same,Effusion over the right wrist on ultrasound,"[1]; Patient 6, by 3.5 weeks of degarelix, large effusion before (FIG. 4)",much smaller
same,ACR % Response,"[1]; Patient 6, treatment duration 36 weeks",80%
same,HAQ DI,[2]; 5 weeks,1.38
same,Digital tip ulcers/pitting scars,[2]; 5 weeks,2
same,Modified Rodnan Skin Score,[2]; 5 weeks,40
same,VAS Fatigue,[2]; 5 weeks,75
same,VAS Fingertip pain/pitting scars/ulcers,[2]; 5 weeks,40
same,VAS Gastrointestinal Symptoms,[2]; 5 weeks,80
same,VAS Global,[2]; 5 weeks,40
same,VAS Lung/dyspnea,[2]; 5 weeks,80
same,VAS Pain,[2]; 5 weeks,10
same,VAS Raynauds/vascular,[2]; 5 weeks,40
same,Sleep,[2]; 5 weeks,5 hrs/night
same,HAQ DI,[2]; 6 weeks,1.38
same,Digital tip ulcers/pitting scars,[2]; 6 weeks,2
same,Modified Rodnan Skin Score,[2]; 6 weeks,40
same,VAS Fatigue,[2]; 6 weeks,60
same,VAS Fingertip pain/pitting scars/ulcers,[2]; 6 weeks,30
same,VAS Gastrointestinal Symptoms,[2]; 6 weeks,60
same,VAS Global,[2]; 6 weeks,40
same,VAS Lung/dyspnea,[2]; 6 weeks,50
same,VAS Pain,[2]; 6 weeks,10
same,VAS Raynauds/vascular,[2]; 6 weeks,30
same,Sleep,[2]; 6 weeks,5.5 hrs/night
same,CRP,[3]; from 87 mg/L,67 mg/L
same,ESR,[3]; from 62 mm,38 mm
same,Disease activity score (DAS),"[3]; at 2 weeks, from 7.3",6.7
same,PASI score reduction,[4]; Psoriasis Patient C,more than 20%
same,CRP,"[4]; RA Patient A, from 142 mg/L",54 mg/L
same,DAS score,"[4]; RA Patient A, from 8.6",4.2
same,Peripheral GnRH (ELISA),"peripheral GnRH; Multiple Sclerosis Patient B, after 1 month, baseline 318",210 pg/mL
same,Peripheral GnRH (ELISA),"peripheral GnRH; Psoriasis Patient C, after 3 months, baseline 300",274 pg/mL
same,Peripheral GnRH (ELISA),"peripheral GnRH; RA Patient A, after 3 months, baseline 394",359 pg/mL
